Target: T1, human PD-L1 / human PD-1 interaction (Homo sapiens, UniProt Q9NZQ7)
T1 construct: purchased R&D (PD-L1); ACRO Biosystems (PD-1, biotin)
Test: ELISA of PD-1/PD-L1 interaction
Type: binding
Protocol: The activity of Compound 1.041 was assessed with an ELISA assay assessing the direct binding of recombinant PD-1 and PD-L1 proteins (FIG. 1A), a dimerization ELISA assay assessing the direct binding/dimerization of recombinant PD-L1 proteins (FIG. 1B), a cell based assay measuring the downstream signaling following the interaction of PD-1 and PD-L1 using a Luciferase reporter assay with cell lines overexpressing PD-1 and PD-L1 (FIG. 1C), and a mixed lymphocyte reaction assay measuring the functional outcome of upregulation of IFNg secretion, using allogenic primary human immune cells (FIG. 1D). Briefly, the mixed lymophocyte reaction assay was performed as follows: Dendritic cells and CD4+T Cells from unmatched donors were cultured together for 5 days in 96 well-flat bottom plates. Test compound was added as indicated at starting concentration of 1 μM with 1:4 dilutions with DMSO. Supernatants were harvested after 5 days of incubation and detection of human IFNg was performed by ELISA. […]
96 Well plates were coated with 1 μg/mL of human PD-L1 (obtained from R&D) in
PBS overnight at 4° C. The wells were then blocked with 2% BSA in PBS (WN) with 0.05% TWEEN-20 for 1 hour at 37° C. The plates were washed 3 times with PBS/0.05% TWEEN-20 and the compounds were serial diluted (1:5) in dilution medium and added to the ELISA plates. Human PD-1 and biotin 0.3μg/mL (ACRO Biosystems) were added and incubated for 1 hour at 37° C. then washed 3 times with PBS/0.05% TWEEN-20. A second block was performed with 2% BSA in PBS (WN)/0.05% TWEEN-20 for 10 min at 37° C. and was washed 3 times with PBS/0.05% TWEEN-20. Streptavidin—HRP was added for 1 hour at 37° C. then washed 3 times with PBS/0.05% TWEEN-20. TMB substrate was added and reacted for 20 min at 37° C. A stop solution (2 N aqueous H2SO4) was added. The absorbance was read at 450 nm using a micro-plate spectrophotometer.

T1 sequence (Q9NZQ7 19-239 limits assumed): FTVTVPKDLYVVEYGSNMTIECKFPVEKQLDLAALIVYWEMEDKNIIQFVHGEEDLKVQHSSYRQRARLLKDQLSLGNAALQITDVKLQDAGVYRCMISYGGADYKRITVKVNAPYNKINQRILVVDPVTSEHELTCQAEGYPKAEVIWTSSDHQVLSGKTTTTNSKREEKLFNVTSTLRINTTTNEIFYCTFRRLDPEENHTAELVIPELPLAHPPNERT

Row | Compound | IC50 [nM]
1 | Cc1c(OCCCN2[C@@H](C)CC[C@@H]2C)cccc1-c1cccc2c1CC[C@@H]2Oc1cc(OCc2cc(C#N)cc(C#N)c2)c(CN[C@H]2CCC(=O)NC2)cc1Cl | < 5
2 | Cc1c(OCCCN2CCC(C)(F)CC2)cccc1-c1cccc2c1CC[C@@H]2Oc1cc(OCc2cc(C#N)cc(C#N)c2)c(CN[C@@H]2CCC[C@H]2O)cc1Cl | 5 to 500
3 | Cc1c(OCCCNCC(C)(C)O)cccc1-c1cccc2c1CC[C@@H]2Oc1cc(OCc2cncc(C#N)c2)c(CNCC2CCC(=O)N2)cc1Cl (stereo partly drawn) | < 5
4 | Cc1c(OCCCN2CCCC[C@@H]2C)cccc1-c1cccc2c1CC[C@@H]2Oc1cc(OCc2cc(C#N)cc(C#N)c2)c(CN[C@H]2CCC(=O)NC2)cc1Cl | < 5
5 | Cc1c(OCCCN2CCC(O)CC2)cccc1-c1cccc2c1CC[C@@H]2Oc1cc(OCc2cncc(C#N)c2)c(CN2CC(C(=O)O)C2)cc1Cl | < 5
6 | N#Cc1cc(C#N)cc(COc2cc(O[C@@H]3c4cccc(-c5cccc(OCCCN6CC(O)C6)c5Cl)c4C[C@@H]3F)c(Cl)cc2CNC[C@H]2CCC(=O)N2)c1 | < 5
7 | Cc1c(OCCCN2CC3(CC(O)C3)C2)cccc1-c1cccc2c1CC[C@@H]2Oc1cc(OCc2cncc(C#N)c2)c(CN[C@H](C(=O)O)[C@@H](C)O)cc1Cl | < 5
8 | Cc1c(OCCCN2CCC(C)CC2)cccc1-c1cccc2c1CC[C@@H]2Oc1cc(OCc2cc(C#N)cc(C#N)c2)c(CNC[C@H]2CCC(=O)N2)cc1Cl | < 5
9 | CCOc1cc(O[C@H]2CCc3c(-c4cccc(OCCCN5CCC(F)CC5)c4C)cccc32)c(Cl)cc1CN[C@@H](CO)C(=O)O | < 5
10 | C[C@@](CO)(NCc1cc(Cl)c(O[C@@H]2c3cccc(-c4cccc(OCCCN5CC(O)C5)c4Cl)c3C[C@@H]2F)cc1OCc1cc(C#N)cc(C#N)c1)C(=O)O | < 5
11 | Cc1c(OCCCN2CCC(O)CC2)cccc1-c1cccc2c1CC[C@@H]2Oc1cc(OCCCN2CC[C@@H](O)C2)c(CN[C@@H]2CCCC[C@@H]2O)cc1Cl | < 5
12 | CC1(O)CN(CCCOc2cccc(-c3cccc4c3CC[C@@H]4Oc3cc(OCc4cncc(C#N)c4)c(CN[C@@](C)(CO)C(=O)O)cc3Cl)c2Cl)C1 | < 5
13 | CCOc1cc(O[C@H]2CCc3c(-c4cccc(OCCCN5CCC5(C)C)c4C)cccc32)c(Cl)cc1CN(C)CC(=O)O | 5 to 500
14 | Cc1c(OCCCN2CC[C@H](F)C[C@@H]2C)cccc1-c1cccc2c1CC[C@@H]2Oc1cc(OCc2cc(C#N)cc(C#N)c2)c(CN[C@H]2CCC(=O)NC2)cc1Cl | 5 to 500
15 | Cc1c(OCCCN2CCCCC2)cccc1-c1cccc2c1CC[C@@H]2Oc1cc(OCc2cncc(C#N)c2)c(CNC[C@@H]2CCC(=O)N2)cc1Cl | < 5
16 | Cc1c(OCCCN2CC3(CC(F)C3)C2)cccc1-c1cccc2c1CC[C@@H]2Oc1cc(OCc2cc(C#N)cc(C#N)c2)c(CN[C@H]2CCC(=O)NC2)cc1Cl | < 5
17 | C[C@@H](O)[C@H](NCc1cc(Cl)c(O[C@H]2CCc3c(-c4cccc(OCCCN5CC(O)C5)c4Cl)cccc32)cc1OCc1cncc(C#N)c1)C(N)=O | < 5
18 | C[C@@H](O)[C@H](NCc1cc(Cl)c(O[C@H]2CCc3c(-c4cccc(OCCCN5CCCCC5)c4Cl)cccc32)cc1OCc1cncc(C#N)c1)C(=O)NS(C)(=O)=O | < 5
19 | Cc1c(OCCCN2CC[C@@H](O)C2)cccc1-c1cccc2c1CC[C@@H]2Oc1cc(OCc2cncc(C#N)c2)c(CN[C@H](C(=O)O)[C@@H](C)O)cc1Cl | < 5
20 | Cc1c(OCCCN2CCC2(C)C)cccc1-c1cccc2c1CC[C@@H]2Oc1cc(OCc2cc(C#N)cc(C#N)c2)c(CN[C@H]2CCC(=O)NC2)cc1Cl | < 5
21 | CC(CO)(NCc1cc(Cl)c(O[C@H]2CCc3c(-c4cccc(OCCCN5CC(F)C5)c4Cl)cccc32)cc1OCc1cncc(C#N)c1)C(=O)O (stereo partly drawn) | < 5
22 | Cc1c(OCCCN2CCC(O)CC2)cccc1-c1cccc2c1CC[C@@H]2Oc1cc(OCc2cncc(C#N)c2)c(CN[C@@H](CO)C(N)=O)cc1Cl | < 5
23 | CCN1CCC(COc2cccc(-c3cccc4c3CC[C@@H]4Oc3cc(OCc4cncc(C#N)c4)c(CNC[C@@H]4CCC(=O)N4)cc3Cl)c2Cl)C1 (stereo partly drawn) | < 5
24 | C[C@@](CO)(NCc1cc(Cl)c(O[C@H]2CCc3c(-c4cccc(OCCCN5CCC(O)CC5)c4F)cccc32)cc1OCc1cncc(C#N)c1)C(=O)O | < 5
25 | C[C@@H](O)[C@H](NCc1cc(Cl)c(O[C@H]2CCc3c(-c4cccc(OCCCN5CC(O)C5)c4Cl)cccc32)cc1OCc1cncc(C#N)c1)C(=O)NS(C)(=O)=O | < 5
26 | CC(C)(O)CNCc1cc(Cl)c(O[C@H]2CCc3c(-c4cccc(OCCCN5CC(O)C5)c4Cl)cccc32)cc1OCc1cncc(C#N)c1 | < 5
27 | CC(CO)(NCc1cc(Cl)c(O[C@H]2CCc3c(-c4cccc(OCCCN5CC(O)C5)c4Cl)cccc32)cc1OCc1cccnc1)C(=O)O (stereo partly drawn) | < 5
28 | N#Cc1cncc(COc2cc(O[C@H]3CCc4c(-c5cccc(OCCCN6CC7(CC(O)C7)C6)c5Cl)cccc43)c(Cl)cc2CNC[C@@H]2CCC(=O)N2)c1 | < 5
29 | Cc1c(OCCCN2CCC(O)CC2)cccc1-c1cccc2c1CC[C@@H]2Oc1cc(OCc2cncc(C#N)c2)c(CN[C@@](C)(CO)C(=O)O)cc1Cl | < 5
30 | Cc1c(OCCCN2CCC(F)CC2)cccc1-c1cccc2c1CC[C@@H]2Oc1cc(OCc2cc(C#N)cc(C#N)c2)c(CNC[C@@H]2CCC(=O)N2)cc1Cl | < 5

More lines, now with the values ahead:

Row | IC50 [nM] | Compound
31 | < 5 | N#Cc1cncc(COc2cc(O[C@H]3CCc4c(-c5cccc(OCCCN6CCC(F)CC6)c5Cl)cccc43)c(Cl)cc2CN[C@@H]2CCCC[C@@H]2O)c1
32 | < 5 | N#Cc1cncc(COc2cc(O[C@H]3CCc4c(-c5cccc(OCCCN6CC[C@@H](F)C6)c5Cl)cccc43)c(Cl)cc2CN[C@@H]2CCCC[C@@H]2O)c1
33 | < 5 | N#Cc1cncc(COc2cc(O[C@H]3CCc4c(-c5cccc(OCCCN6CC7(CCC7)C6)c5Cl)cccc43)c(Cl)cc2CN[C@@H]2CCCC[C@@H]2O)c1
34 | < 5 | Cc1c(OCCCN2CCC(O)CC2)cccc1-c1cccc2c1C[C@H](F)[C@@H]2Oc1cc(OCc2cncc(C#N)c2)c(CN[C@@H]2CCCC[C@@H]2O)cc1Cl
35 | < 5 | N#Cc1cncc(COc2cc(O[C@H]3CCc4c(-c5cccc(OCCCN6CC7(CC(F)C7)C6)c5Cl)cccc43)c(Cl)cc2CNC[C@H]2CCC(=O)N2)c1
36 | < 5 | C[C@@H](O)[C@H](NCc1cc(Cl)c(O[C@H]2CCc3c(-c4cccc(OCCCN5CCC(F)CC5)c4Cl)cccc32)cc1OCc1cncc(C#N)c1)C(=O)NS(C)(=O)=O
37 | < 5 | CC(CO)(NCc1cc(Cl)c(O[C@H]2CCc3c(-c4cccc(OCCCN5CCCCC5)c4Cl)cccc32)cc1OCc1cncc(C#N)c1)C(=O)O (stereo partly drawn)
38 | < 5 | N#Cc1cncc(COc2cc(O[C@H]3CCc4c(-c5cccc(OCCCN6CCC(F)CC6)c5Cl)cccc43)c(Cl)cc2CNC[C@H]2CCC(=O)N2)c1
39 | < 5 | CC(C)(O)[C@H](NCc1cc(Cl)c(O[C@H]2CCc3c(-c4cccc(OCCCN5CCC(F)CC5)c4Cl)cccc32)cc1OCc1cncc(C#N)c1)C(=O)O
40 | < 5 | Cc1c(OCCCN2CCC(O)CC2)cccc1-c1cccc2c1CC[C@@H]2Oc1cc(OCc2cncc(C#N)c2)c(CN2CC(O)C2)cc1Cl
41 | < 5 | CC1(F)CCN(CCCOc2cccc(-c3cccc4c3CC[C@@H]4Oc3cc(OCc4cncc(C#N)c4)c(CN[C@@H]4CCCC[C@@H]4O)cc3Cl)c2Cl)CC1
42 | < 5 | CC1(O)CN(Cc2cc(Cl)c(O[C@H]3CCc4c(-c5cccc(OCCCN6CCC(F)CC6)c5Cl)cccc43)cc2OCc2cncc(C#N)c2)C1
43 | < 5 | N#Cc1cncc(COc2cc(O[C@H]3CCc4c(-c5cccc(OCCCN6CCC(F)CC6)c5Cl)cccc43)c(Cl)cc2CN[C@H]2CCC[C@H]2O)c1
44 | < 5 | CC1(C)CC(O)CCN1CCCOc1cccc(-c2cccc3c2CC[C@@H]3Oc2cc(OCc3cncc(C#N)c3)c(CN[C@@H]3CCCC[C@@H]3O)cc2Cl)c1Cl (stereo partly drawn)
45 | < 5 | N#Cc1cncc(COc2cc(O[C@H]3CCc4c(-c5cccc(OCCCN6CC(O)C6)c5Cl)cccc43)c(Cl)cc2CN2CC3(CC(O)C3)C2)c1
46 | < 5 | N#Cc1cncc(COc2cc(O[C@H]3CCc4c(-c5cccc(OCCCN6CCCCC6)c5Cl)cccc43)c(Cl)cc2CNC[C@H]2CCC(=O)N2)c1
47 | < 5 | Cc1c(OCCCN2CCC(F)CC2)cccc1-c1cccc2c1CC[C@@H]2Oc1cc(OCc2cncc(C#N)c2)c(CN[C@H](C(=O)O)[C@@H](C)O)cc1Cl
48 | < 5 | N#Cc1cncc(COc2cc(O[C@H]3CCc4c(-c5cccc(OCCCN6CCC(F)CC6)c5Cl)cccc43)c(Cl)cc2CN[C@@H]2CC[C@H]2O)c1
49 | < 5 | N#Cc1cncc(COc2cc(O[C@H]3CCc4c(-c5cccc(OCCCN6CC[C@H](F)C6)c5Cl)cccc43)c(Cl)cc2CN[C@@H]2CCCC[C@@H]2O)c1
50 | < 5 | N#Cc1cncc(COc2cc(O[C@H]3CCc4c(-c5cccc(OCCCN6CC7(C6)CC(F)(F)C7)c5Cl)cccc43)c(Cl)cc2CN[C@H]2CCC[C@@H]2O)c1
51 | < 5 | N#Cc1cncc(COc2cc(O[C@H]3CCc4c(-c5cccc(OCCCN6CC7(CC(O)C7)C6)c5Cl)cccc43)c(Cl)cc2CN[C@H]2CCC[C@H]2O)c1

— patent publication US20210236476A1, “METHODS OF TREATING CANCER WITH SMALL MOLECULE PD-L1 INHIBITORS” (CHEMOCENTRYX, INC., priority 2018, published 2021)
